In patent US11261179B2, “Small molecules” (University of Dundee, priority 2017, dated 2022):
Several values for one entry are separate records, joined by “and”; a condition that tells them apart may be missing. Equal entries are not always repeated. Entries after “also recorded” stand apart in the source; their conditions may differ.

Legend:
[1] = target: pVHL19 (VCB complex: VHL with Elongin B and Elongin C) (Homo sapiens, UniProt P40337); assay: ITC titration against VCB, short VHL isoform; type: binding; conditions: ITC; for Kd / ΔG / ΔH / α (cooperativity/avidity) / −TΔS: pVHL19; for n (stoichiometry): pVHL19, 25° C.
pVHL19 (VCB complex: VHL with Elongin B and Elongin C), sequence (P40337 54-213): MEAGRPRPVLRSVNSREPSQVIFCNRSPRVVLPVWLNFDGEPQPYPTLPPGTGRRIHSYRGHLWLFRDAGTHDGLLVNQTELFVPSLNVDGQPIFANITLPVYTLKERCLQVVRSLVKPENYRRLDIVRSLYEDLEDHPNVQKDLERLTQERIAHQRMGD
pVHL19 (VCB complex: VHL with Elongin B and Elongin C), sequence (Q15370 1-104 partner limits assumed): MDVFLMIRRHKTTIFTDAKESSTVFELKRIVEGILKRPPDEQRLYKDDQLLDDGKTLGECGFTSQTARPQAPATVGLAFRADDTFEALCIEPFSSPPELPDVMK
pVHL19 (VCB complex: VHL with Elongin B and Elongin C), sequence (Q15369 17-112 partner limits assumed): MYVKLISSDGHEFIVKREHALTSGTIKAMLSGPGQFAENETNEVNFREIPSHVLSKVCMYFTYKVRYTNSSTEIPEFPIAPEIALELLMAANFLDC
Procedure: Titrations were performed on an ITC200 micro-calorimeter (GE Healthcare). […] The final DMSO concentration was 0.15% v/v. VBC protein experiments were carried out in a buffer containing 20 mM Bis-tris propane, 150 mM NaCl, 1 mM TCEP, 0.15% v/v DMSO, pH 7.4. The titrations consisted of 19 injections of 2 μL compounds solution (150 μM, in the syringe) at a rate of 2 s/μL at 120 s time intervals into the VCB protein solution (20 μM, in the cell). An initial injection of compound solution (0.4 μL) was made and discarded during data analysis. All experiments were performed at 25° C., whilst stirring the syringe at 600 rpm. The data were fitted to a single binding site model to obtain the stoichiometry n, the dissociation constant Kd and the enthalpy of binding ΔH using the Microcal LLC ITC200 Origin software provided by the manufacturer.

VCB complex = VCB complex (Homo sapiens, UniProt P40337); assay: Size exclusion chromatography of VCB complex formation; type: binding; conditions: SEC, VCB 50 μM, compound 30 μM
VCB complex, sequence (P40337 54-213 limits assumed): as the sequence (P40337 54-213) above
VCB complex, sequence (Q15370 1-104 partner limits assumed): as the sequence (Q15370 1-104 partner limits assumed) above
VCB complex, sequence (Q15369 17-112 partner limits assumed): as the sequence (Q15369 17-112 partner limits assumed) above
Procedure: SEC experiments were carried out in a AKTA pure system (GE Healthcare) at room temperature. The oligomeric state of the VCB complex in solution was analyzed by gel filtration in a buffer containing 20 mM Bis-Tris (pH 7), 150 mM NaCl and 1 mM 1,4-dithiothreitol (DTT) using a Superdex 200 Increase 10/300 GL column (GE Healthcare) calibrated with globular proteins of known molecular weight (GE Healthcare, 28-4038-41/42). […] Sample volume for each injection was 200 μL, and the flow rate was 0.5 mL/min. Peak elution was monitored using ultraviolet absorbance at 280 nm.

[2] = tested on: HIF-1α / hydroxylated HIF-1α (Hdy-HIF-1α); assay: Western blot of HIF-1α and Hdy-HIF-1α levels in HeLa cells; type: cell-based, Human; conditions: HeLa, 1 μM, 10 h
Procedure: (§1) For single time point treatment experiments, cells were transferred in 6-well plates with 5×10^5 cells per well in 2 ml media in order to achieve 80% confluence the following day. Stock concentrations of compounds were prepared by solubilizing the powder in 100% v/v DMSO to the final desired stock concentration.
(§2) On the day of treatment, all compound samples were prepared as 100-fold concentrated compound solution using DMEM just before treatment. The experiment samples (20 μL) were added to the 6 well plate containing 2 ml of media. The final DMSO concentration was 0.1% v/v. Cells were incubated at 37° C. and 5% CO2 for the desired time before harvesting.
(§3) For time dependent treatment, cells were transferred in 6-well plates with 3×10^5 cells per well in 2 ml media. Samples were prepared as detailed above or the single time point experiments. Treatment was conducted at given time points prior to harvest.
(§4) Cells were lysed in lysis buffer (20 mM Tris pH 8, 150 mM NaCl, 1% Triton x100) and a protease inhibitor cocktail (Roche) per 10 ml buffer. For protein extracts, the dishes were placed on ice. The media was aspirated and the tissue layer washed twice with ice-cold phosphate buffer saline (PBS). Lysis buffer (120 μl) was added and the cells detached from the surface with a cell scraper. After removal of the insoluble fraction by centrifugation, the protein concentration of the supernatant was determined by Pierce™ Coomassie (Bradford) Protein Assay Kit. Protein extracts were fractionated by SDS-PAGE on 4-12% Tris-Acetate NuPage® Novex® (Life Technologies) polyacrylamide gels and transferred to a nitrocellulose membrane using wet transfer. The membrane was then blocked with 5% w/v Bovine serum albumin (BSA) in Tris-buffered saline (TBS) with 0.1% w/v Tween-20. For detecting proteins the following primary antibodies in the given concentrations were used: anti-β-Actin (Cell Signaling Technology, 4970S, 13E5) 1:2000, anti-VHL (Cell Signaling Technology, #68547) 1:1000, anti-Hif-1α (BD Biosciences, 610959, clone 54) 1:1000, anti-hydroxy-HIF-1α (Hyp564) (Cell Signaling Techonology; #3434) 1:1000, anti-PHD2 (Bethyl Laboratories; A300-322A) 1:1000, anti-PHD3 (Bethyl Laboratories; A300-327A) 1:1000, anti-CRBN (Proteintech; 11435-1-AP) 1:1000.
(§5) Following incubation with a horseradish peroxidase-conjugated secondary antibody (Cell Signaling Technology), the signal was developed using enhanced chemiluminescence (ECL) Western Blotting Detection Kit (Amersham) on Amersham Hyperfilm ECL film (Amersham).
(§6) Band quantification was performed using ImageJ software and reported as relative amount as ratio of the each protein band relative to the lane's loading control. The values obtained were then normalized to 0.1% DMSO vehicle control.

[3] = target: T1, VCB (biotinylated VCB and His-VCB) (Homo sapiens, UniProt P40337); assay: AlphaLISA proximity assay of ternary complex formation; type: binding; conditions: VCB 20 nM each, 0.5 to 200 nM Homo-PROTAC
T1 construct: His tag (printed 'Hiss-VCB'); biotin (chemical labelling with NHS-PEG4-biotin); on the other VCB population
T1 sequence (P40337 54-213 limits assumed): as the sequence (P40337 54-213) above
T1 sequence (Q15370 1-104 partner limits assumed): as the sequence (Q15370 1-104 partner limits assumed) above
T1 sequence (Q15369 17-112 partner limits assumed): as the sequence (Q15369 17-112 partner limits assumed) above
Procedure: The VCB complex was mixed with EZ-link NHS-PEG4-biotin (Thermo Scientific) in a 1:1 molar ratio and incubated at room temperature for 1 h. The reaction was quenched using 1 M Tris-HCl, pH 7.5, and unreacted NHS-biotin was removed with a PD-10 MiniTrap desalting column (GE Healthcare) equilibrated with 20 mM HEPES, pH 7.5, 150 mM NaCl and 1 mM DTT.
All assays were performed at room temperature in 384-well plates with a final assay volume of 25 μL per well; plates were sealed with transparent film between addition of reagents. All reagents were prepared as 5× stocks diluted in 50 mM HEPES, pH 7.5, 100 mM NaCl, 0.1% (w/v) bovine serum albumin and 0.02% (w/v) 3-[(cholamidopropyl)dimethylammonio]-1-propanesulfonate (CHAPS). Biotinylated VCB (20 nM final) and Hiss-VCB (20 nM final) were incubated with a range of Homo-PROTAC concentrations (0.5 to 200 nM; three-in-five serial dilution) for 1 h. Anti-His acceptor beads (PerkinElmer, 10 μg/mL final) were added and plates were incubated for another hour. Streptavidin-coated donor beads (PerkinElmer, 10 μg/mL final) were added and plates were incubated for a final 1 h. Plates were read on a PHERAstar FS (BMG Labtech) using an optic module with an excitation wavelength of 680 nm and emission wavelength of 615 nm. Intensity values were plotted against PROTAC concentration on a logo scale.

pVHL30 = target: T2, pVHL30 (Homo sapiens, UniProt P40337); assay: Western blot of VHL levels in U2OS cells; type: cell-based; conditions: for profile of cellular activity: 10 h, 1 nM-100 μM; for cellular efficacy at longer time points / time of treatment to complete degradation of pVHL30: time course
T2 construct: endogenous in cells; host or cells: U2OS
T2 sequence (P40337 whole entry): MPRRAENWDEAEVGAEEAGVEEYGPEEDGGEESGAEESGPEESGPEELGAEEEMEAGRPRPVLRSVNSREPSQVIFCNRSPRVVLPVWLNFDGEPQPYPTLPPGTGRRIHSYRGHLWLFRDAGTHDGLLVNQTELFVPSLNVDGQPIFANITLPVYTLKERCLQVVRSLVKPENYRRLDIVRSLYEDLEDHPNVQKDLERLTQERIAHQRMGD
Procedure: as §1, §2, §3, §4, §5, §6

[4] = target: T3, pVHL30 (long isoform of VHL) (Homo sapiens, UniProt P40337); assay: Western blot of VHL levels in HeLa cells; type: cell-based
T3 construct: endogenous in cells; host or cells: HeLa
T3 sequence (P40337 whole entry, canonical isoform): as the sequence (P40337 whole entry) above
Procedure: as §1, §2, §3
Cells were transferred in 6-well plates with 5×10^5 cells per well in 2 ml media in order to achieve 80% confluence the day after. At t=0, MLN4924 was added into the desired wells at 3 μM final concentration and 0.1% v/v of DMSO. DMSO (0.1% v/v final conc.) was added to the remaining wells in order to match identical conc. of vehicle in all wells. At t=3 h, MG 132 was added into the desired wells at 50 μM final conc. and 0.1% v/v of DMSO. DMSO (0.1% v/v final conc.) was added to the remaining wells in order to achieve the same conc. of vehicle in all the wells. […] DMSO (0.1% v/v final conc.) was added to the remaining wells in order to obtain the same conc. of vehicle in all the wells. The total final concentration of DMSO was therefore 0.3% v/v. Plates were incubated for 4 h at 37° C. and 5% CO2 before harvesting.
Cells were transferred in 6-well plates with 5×10^5 cells per well in 2 ml media in order to achieve 80% confluence the day after. […] Plates were incubated for the desired time at 37° C. and 5% CO2 before harvesting.
For this experiments, cells were transferred in 6-well plates with 5×10^5 cells per well in 2 ml media in order to achieve 80% confluence the day after. […] Plates were incubated for the desired time at 37° C. and 5% CO2 before harvesting.
as §4, §5
Band quantification was performed using ImageJ software and reported as relative amount as ratio of the each protein band relative to the lane's loading control. […]

Kd [1]	ΔG [1]	ΔH [1]	α (cooperativity/avidity) [1]	−TΔS [1]	n (stoichiometry) [1]	AlphaLISA intensity signal / complex formation [3]	profile of cellular activity (pVHL30)	cellular efficacy at longer time points (pVHL30)	time of treatment to complete degradation of pVHL30 (pVHL30)	degradation of pVHL over time ([4]; time course, also longer time points)	SMILES	shift of VCB peak / ternary complex formation (VCB complex)	HIF-1α level [2]	protein levels of Hdy-HIF-1α [2]	depletion/degradation of VHL (pVHL30) ([4]; 1 μM, 10 h)
41 ± 15 nM	-10.3 ± 0.2 kcal/mol	-6.9 ± 0.3 kcal/mol	4	-3.5 ± 0.5 kcal/mol	0.98 ± 0.09	negligible levels of complex formation	consistent profile of cellular activity	lost its cellular efficacy after 36 h	2 h	Incomplete degradation	Cc1ncsc1-c1ccc(CNC(=O)[C@@H]2C[C@@H](O)CN2C(=O)[C@@H](NC(=O)COCCOCCOCCOCC(=O)N[C@H](C(=O)N2C[C@H](O)C[C@H]2C(=O)NCc2ccc(-c3scnc3C)cc2)C(C)(C)C)C(C)(C)C)cc1 [CM09, N^1,N^14-bis((S)-1-((2S,4R)-4-hydroxy-2-((4-(4-methylthiazol-5-yl)benzyl)carbamoyl)pyrrolidin-1-yl)-3,3-dimethyl-1-oxobutan-2-yl)-3,6,9,12-tetraoxatetradecanediamide]	formation of a ternary complex eluting at identical retention volume	slight increase	–	–
32 ± 5 nM	-10.2 ± 0.1 kcal/mol	-9.4 ± 0.1 kcal/mol	6	-0.8 ± 0.2 kcal/mol	0.7 and 0.73 ± 0.01	negligible levels of complex formation	consistent profile of cellular activity	retained their efficacy	2 h	–	Cc1ncsc1-c1ccc(CNC(=O)[C@@H]2C[C@@H](O)CN2C(=O)[C@@H](NC(=O)COCCOCCOCCOCCOCC(=O)N[C@H](C(=O)N2C[C@H](O)C[C@H]2C(=O)NCc2ccc(-c3scnc3C)cc2)C(C)(C)C)C(C)(C)C)cc1 [CM10, N^1,N^17-bis((S)-1-((2S,4R)-4-hydroxy-2-((4-(4-methylthiazol-5-yl)benzyl)carbamoyl)pyrrolidin-1-yl)-3,3-dimethyl-1-oxobutan-2-yl)-3,6,9,12,15-pentaoxaheptadecanediamide]	formation of a ternary complex eluting at identical retention volume	slight increase	detectable albeit low increase	total knockdown; also recorded: complete depletion
